In patent publication US20100222328A1, “2-CYCLOPROPYL-THIAZOLE DERIVATIVES” (priority 2007, published 2010) one finds IC50 data, which are given here for 13 compounds.

Molecules are shown by their SMILES. Where two headings read alike, the source gives them in different places.

In one assay the target is T1, human orexin-2 receptor (Homo sapiens, UniProt O43614).
T1 construct: expressed in transfected cells; host or cells: CHO cells (grown under G418 selection)
T1 sequence (O43614 1-444): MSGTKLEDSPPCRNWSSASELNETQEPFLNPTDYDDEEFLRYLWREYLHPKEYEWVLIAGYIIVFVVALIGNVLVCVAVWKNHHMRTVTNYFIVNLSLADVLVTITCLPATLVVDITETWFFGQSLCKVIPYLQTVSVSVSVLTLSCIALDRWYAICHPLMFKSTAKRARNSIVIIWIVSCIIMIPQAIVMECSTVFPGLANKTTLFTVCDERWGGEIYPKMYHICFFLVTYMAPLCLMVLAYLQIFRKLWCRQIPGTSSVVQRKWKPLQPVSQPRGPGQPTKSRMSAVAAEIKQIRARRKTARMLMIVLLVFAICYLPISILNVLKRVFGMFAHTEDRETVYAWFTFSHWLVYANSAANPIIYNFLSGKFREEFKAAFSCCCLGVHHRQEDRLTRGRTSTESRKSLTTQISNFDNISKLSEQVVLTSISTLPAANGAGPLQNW
Put plainly: Intracellular calcium measurements (FLIPR), CHO cells expressing the human orexin-2 receptor, orexin-A as agonist. It is filed as cell-based. The note with it: 3 nM orexin-A, read-out: OX2 IC50. How it is done:
(§1) The orexin receptor antagonistic activity of the compounds of formula (I) is determined in accordance with the following experimental method.
(§2) Chinese hamster ovary (CHO) cells expressing the human orexin-1 receptor and the human orexin-2 receptor, respectively, are grown in culture medium (Ham F-12 with L-Glutamine) containing 300 μg/ml G418, 100 U/ml penicillin, 100 μg/ml streptomycin and 10% heat inactivated fetal calf serum (FCS). The cells are seeded at 20′000 cells/well into 384-well black clear bottom sterile plates (Greiner). The seeded plates are incubated overnight at 37° C. in 5% CO2.
(§3) Human orexin-A as an agonist is prepared as 1 mM stock solution in MeOH: water (1:1), diluted in HBSS containing 0.1% bovine serum albumin (BSA), NaHCO3: 0.375g/l and 20 mM HEPES for use in the assay at a final concentration of 3 nM.
(§4) Antagonists are prepared as 10 mM stock solution in DMSO, then diluted in 384-well plates using DMSO followed by a transfer of the dilutions into in HBSS containing 0.1% bovine serum albumin (BSA), NaHCO3: 0.375 g/l and 20 mM HEPES. On the day of the assay, 50 μl of staining buffer (HBSS containing 1% FCS, 20 mM HEPES, NaHCO3: 0.375 g/l, 5 mM probenecid (Sigma) and 3 μM of the fluorescent calcium indicator fluo-4 AM (1 mM stock solution in DMSO, containing 10% pluronic) is added to each well. The 384-well cell-plates are incubated for 50 min at 37° C. in 5% CO2 followed by equilibration at rt for 30-120 min before measurement.
(§5) Within the Fluorescent Imaging Plate Reader (FLIPR2 or FLIPR Tetra, Molecular Devices), antagonists are added to the plate in a volume of 10 μl/well, incubated for 10 min and finally 10 μl/well of agonist is added. Fluorescence is measured for each well at 1 second intervals, and the height of each fluorescence peak is compared to the height of the fluorescence peak induced by 3 nM orexin-A with vehicle in place of antagonist. For each antagonist, the IC50 value (the concentration of compound needed to inhibit 50% of the agonistic response) is determined. The calculated IC50 values of the compounds may fluctuate depending on the daily cellular assay performance. Fluctuations of this kind are known to those skilled in the art.
(Calcium assays in cells follow changes in intracellular calcium, usually with a dye or a luminescent sensor.)

A further assay concerns the target T2, human orexin-1 receptor (Homo sapiens, UniProt O43613).
T2 construct: expressed in transfected cells; host or cells: CHO cells (grown under G418 selection)
T2 sequence (O43613 1-425): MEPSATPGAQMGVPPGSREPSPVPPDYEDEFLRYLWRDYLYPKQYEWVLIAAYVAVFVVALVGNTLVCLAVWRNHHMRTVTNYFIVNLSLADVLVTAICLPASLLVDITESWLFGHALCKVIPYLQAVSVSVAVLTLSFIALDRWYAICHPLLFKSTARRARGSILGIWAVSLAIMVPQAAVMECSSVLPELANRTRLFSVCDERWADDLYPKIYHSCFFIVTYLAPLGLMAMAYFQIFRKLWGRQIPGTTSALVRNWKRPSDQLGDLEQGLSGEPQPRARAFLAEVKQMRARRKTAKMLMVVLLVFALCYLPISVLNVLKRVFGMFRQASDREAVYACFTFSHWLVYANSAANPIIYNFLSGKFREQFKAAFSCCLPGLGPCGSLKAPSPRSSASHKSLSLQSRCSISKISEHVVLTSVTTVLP
Briefly: Intracellular calcium measurements (FLIPR), CHO cells expressing the human orexin-1 receptor, orexin-A as agonist. It counts as cell-based. The note with it: 3 nM orexin-A, read-out: OX1 IC50. How it is done: as §1, §2, §3, §4, §5

With `O=C(NC[C@@H]1CCCCN1C(=O)c1nc(C2CC2)sc1-c1ccccc1)c1cnc2sccn12` [Example 96, (S)-Imidazo[2,1-b]thiazole-5-carboxylic acid [1-(2-cyclopropyl-5-phenyl-thiazole-4-carbonyl)-piperidin-2-ylmethyl]-amide], the IC50 on human orexin-2 receptor (measured on FLIPR Tetra) is 4.5 nM; on human orexin-1 receptor (measured on FLIPR Tetra) it was 3.6 nM.
`O=C(NC[C@@H]1CCCN1C(=O)c1nc(C2CC2)sc1-c1ccc(F)cc1)c1cccc2occc12` [Example 88, (S)-Benzofuran-4-carboxylic acid {1-[2-cyclopropyl-5-(4-fluoro-phenyl)-thiazole-4-carbonyl]-pyrrolidin-2-ylmethyl}-amide]: the 50% inhibitory concentration (IC50) on human orexin-2 receptor (measured on FLIPR2) was 15 nM; on human orexin-1 receptor (measured on FLIPR2) it was 23 nM.
Take `Cc1ccc(-c2sc(C3CC3)nc2C(=O)N2CCCC[C@H]2CNC(=O)c2c(C)nc3sccn23)cc1` [Example 31, (S)-6-Methyl-imidazo[2,1-b]thiazole-5-carboxylic acid [1-(2-cyclopropyl-5-p-tolyl-thiazole-4-carbonyl)-piperidin-2-ylmethyl]-amide]: the 50% inhibitory concentration (IC50) came out at 8.6 nM at human orexin-2 receptor (measured on FLIPR2) and 2.2 nM on human orexin-1 receptor (measured on FLIPR2).
Take `Cc1cccc(-c2sc(C3CC3)nc2C(=O)N2CCCC[C@H]2CNC(=O)c2cccc(F)c2C)c1` [Example 114, (S)—N-[1-(2-Cyclopropyl-5-m-tolyl-thiazole-4-carbonyl)-piperidin-2-ylmethyl]-3-fluoro-2-methyl-benzamide]: the values for the IC50 on human orexin-2 receptor (measured on FLIPR Tetra) and at human orexin-1 receptor (measured on FLIPR Tetra) were 19 nM and 15 nM, respectively.
Turning to `Cc1cccc(-c2sc(C3CC3)nc2C(=O)N2CCCC[C@H]2CNC(=O)c2cccc3c2CCO3)c1` [Example 107, (S)-2,3-Dihydro-benzofuran-4-carboxylic acid [1-(2-cyclopropyl-5-m-tolyl-thiazole-4-carbonyl)-piperidin-2-ylmethyl]-amide], the IC50 came to 22 nM on human orexin-2 receptor (measured on FLIPR Tetra) and 18 nM at human orexin-1 receptor (measured on FLIPR Tetra).
As for `Cc1cccc(-c2sc(C3CC3)nc2C(=O)N2CCCC[C@H]2CNC(=O)c2cc3occc3n2C)c1` [Example 51, (S)-4-Methyl-4H-furo[3,2-b]pyrrole-5-carboxylic acid [1-(2-cyclopropyl-5-m-tolyl-thiazole-4-carbonyl)-piperidin-2-ylmethyl]-amide], the 50% inhibitory concentration (IC50) at human orexin-2 receptor (measured on FLIPR2) was 15 nM; at human orexin-1 receptor (measured on FLIPR2) it was 25 nM.
In the same order, the values of `O=C(NC[C@@H]1CCCCN1C(=O)c1nc(C2CC2)sc1-c1cccc(C(F)(F)F)c1)c1cccc(Br)c1` [Example 71, (S)-3-Bromo-N-{1-[2-cyclopropyl-5-(3-trifluoromethyl-phenyl)-thiazole-4-carbonyl]-piperidin-2-ylmethyl}-benzamide] are 26 nM and 7.2 nM.
As to `Cn1nc(C(=O)NC[C@@H]2CCCCN2C(=O)c2nc(C3CC3)sc2-c2ccccc2)c2ccccc21` [Example 100, (S)-1-Methyl-1H-indazole-3-carboxylic acid [1-(2-cyclopropyl-5-phenyl-thiazole-4-carbonyl)-piperidin-2-ylmethyl]-amide], the IC50 at human orexin-2 receptor (measured on FLIPR Tetra) worked out at 20 nM; at human orexin-1 receptor (measured on FLIPR Tetra) it was 14 nM.
In the case of `O=C(NC[C@@H]1CCCCN1C(=O)c1nc(C2CC2)sc1-c1cccc(Cl)c1)c1noc2ccccc12` [Example 68, (S)-Benzo[d]isoxazole-3-carboxylic acid {1-[5-(3-chloro-phenyl)-2-cyclopropyl-thiazole-4-carbonyl]-piperidin-2-ylmethyl}-amide], the values for the IC50 at human orexin-2 receptor (measured on FLIPR2) and on human orexin-1 receptor (measured on FLIPR2) were 11 nM and 19 nM, respectively.
On to `Cn1c(C(=O)NC[C@@H]2CCCCN2C(=O)c2nc(C3CC3)sc2-c2ccccc2)cc2occc21` [Example 131, (S)-4-Methyl-4H-furo[3,2-b]pyrrole-5-carboxylic acid [1-(2-cyclopropyl-5-phenyl-thiazole-4-carbonyl)-piperidin-2-ylmethyl]-amide], for which the concentration for half-maximal inhibition (IC50) came out at 17 nM at human orexin-2 receptor (measured on FLIPR Tetra) and 123 nM on human orexin-1 receptor (measured on FLIPR Tetra).
Consider `Cc1nc2sccn2c1C(=O)NC[C@@H]1CCCCN1C(=O)c1nc(C2CC2)sc1-c1ccccc1F` [Example 10, (S)-6-Methyl-imidazo[2,1-b]thiazole-5-carboxylic acid {1-[2-cyclopropyl-5-(2-fluoro-phenyl)-thiazole-4-carbonyl]-piperidin-2-ylmethyl}-amide], for which the results for the 50% inhibitory concentration (IC50) at human orexin-2 receptor (measured on FLIPR2) and at human orexin-1 receptor (measured on FLIPR2) were 3 nM and 1.8 nM, respectively.
In the same order, the values of `Cc1cccc(C(=O)NC[C@@H]2CCCCN2C(=O)c2nc(C3CC3)sc2-c2ccccc2F)c1` [Example 1, (S)—N-{1-[2-Cyclopropyl-5-(2-fluoro-phenyl)-thiazole-4-carbonyl]-piperidin-2-ylmethyl}-3-methyl-benzamide] are 16 nM and 19 nM.
In the same order, the values of `O=C(NC[C@@H]1CCCCN1C(=O)c1nc(C2CC2)sc1-c1ccccc1F)c1cccc2cccnc12` [Example 5, (S)-Quinoline-8-carboxylic acid {1-[2-cyclopropyl-5-(2-fluoro-phenyl)-thiazole-4-carbonyl]-piperidin-2-ylmethyl}-amide] are 7.7 nM and 5.1 nM.

The IC50 is the concentration that inhibits the measured activity by half.
